Measurements from US20220259593A1, “CONTROL OF MAMMALIAN GENE DOSAGE USING CRISPR” (The Regents of the University of California, priority 2019, published 2022).

What was measured:
K562 CRISPRi cells [1] = experiment: Perturb-seq pooled growth measurement (sgRNA counts, growth phenotype γ, relative activity); format: cell-based, human; conditions: γ relative to perfectly matched sgRNA (_00) of the same gene, day 10
K562 CRISPRi cells [2] = experiment: as above; format: cell-based, human; conditions: for gamma_day5 / gamma_day10: pooled growth phenotype γ of the Perturb-seq sgRNA; for gamma_day5: day 5, K562 CRISPRi cells; for gamma_day10: day 10, K562 CRISPRi cells; for relative_activity_day5: γ relative to perfectly matched sgRNA (_00) of the same gene, day 5; for Perturb-seq pooled growth sgRNA counts, d5 / Perturb-seq pooled growth sgRNA counts, d10 / Perturb-seq pooled growth sgRNA counts, T0: sequencing read counts; for Perturb-seq pooled growth sgRNA counts, d5: 5 days of growth (day seven after transduction); for Perturb-seq pooled growth sgRNA counts, d10: 10 days of growth (day twelve after transduction); for Perturb-seq pooled growth sgRNA counts, T0: T0 = day two after transduction
Outline: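 CRISPRi K562 cells from the Perturb-seq transduced pool; 500,000-cell samples taken days two, seven and twelve post-transduction. sgRNA amplicons from genomic DNA sequenced; growth phenotypes from normalized sgRNA abundances at days seven and twelve versus day two. Relative activity assigned from day seven (five days' growth).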

Row | Substance | relative_activity_day10 (K562 CRISPRi cells [1]) | gamma_day5 (K562 CRISPRi cells [2]) | gamma_day10 (K562 CRISPRi cells [2]) | relative_activity_day5 (K562 CRISPRi cells [2]) | Perturb-seq pooled growth sgRNA counts, d5 (K562 CRISPRi cells [2]) | Perturb-seq pooled growth sgRNA counts, d10 (K562 CRISPRi cells [2]) | Perturb-seq pooled growth sgRNA counts, T0 (K562 CRISPRi cells [2])
1 | ALDOA_ + _30077139.23-P1P2_00 (guide GGTCACCAGGACCCCTTCTG; listed as DNA, chemistry not fully specified) | 1 | −0.4127 | −0.3665 | 1 | – | – | –
2 | ALDOA_ + _30077139.23-P1P2_06 (guide GGTCACCAGGATCCCTTCTG; listed as DNA, chemistry not fully specified) | 0.951 | −0.3967 | −0.3485 | 0.9611 | – | – | –
3 | ALDOA_ + _30077139.23-P1P2_07 (guide GGTCACCAGGCCCCCTTCTG; listed as DNA, chemistry not fully specified) | 0.9143 | −0.3609 | −0.3351 | 0.8744 | – | – | –
4 | ALDOA_ + _30077139.23-P1P2_13 (guide GGTCACCAGGACCCCTTTTG; listed as DNA, chemistry not fully specified) | 0.0006011 | 0.01706 | −0.0002203 | −0.04134 | – | – | –
5 | ALDOA_ + _30077139.23-P1P2_14 (guide GGTCACCAGGACCGCTTCTG; listed as DNA, chemistry not fully specified) | 0.4274 | −0.1752 | −0.1566 | 0.4246 | – | – | –
6 | ATP5E_ −_57607036.23-P1P2_00 (guide GGTGTCCAGGGGCACTCTGT; listed as DNA, chemistry not fully specified) | 1 | −0.1769 | −0.2247 | 1 | – | – | –
7 | ATP5E_ −_57607036.23-P1P2_01 (guide GGTGTCCTGGGGCACTCTGT; listed as DNA, chemistry not fully specified) | 1.016 | −0.2097 | −0.2284 | 1.185 | – | – | –
8 | ATP5E_ −_57607036.23-P1P2_04 (guide GGTGTCCAGGAGCACTCTGT; listed as DNA, chemistry not fully specified) | 0.5358 | −0.09793 | −0.1204 | 0.5536 | – | – | –
9 | ATP5E_ −_57607036.23-P1P2_14 (guide GGTGTCCAGGGGCACTGTGT; listed as DNA, chemistry not fully specified) | 0.156 | −0.01233 | −0.03506 | 0.0697 | – | – | –
10 | ATP5E_ −_57607036.23-P1P2_16 (guide GGTGTCCAGGGGCGCTCTGT; listed as DNA, chemistry not fully specified) | 0.7368 | −0.1616 | −0.1656 | 0.9135 | – | – | –
11 | BCR_ + _23523092.23-P1P2_00 (guide GCGCGCGGGGCCCGTCTCAG; listed as DNA, chemistry not fully specified) | 1 | −0.8426 | −0.5068 | 1 | – | – | –
12 | BCR_ + _23523092.23-P1P2_04 (guide GCGCGCGGAGCCCGTCTCAG; listed as DNA, chemistry not fully specified) | 0.8249 | −0.7401 | −0.418 | 0.8783 | – | – | –
13 | BCR_ + _23523092.23-P1P2_05 (guide GCGCGCGGCGCCCGTCTCAG; listed as DNA, chemistry not fully specified) | 0.4434 | −0.3535 | −0.2247 | 0.4196 | – | – | –
14 | BCR_ + _23523092.23-P1P2_07 (guide GCGCGCGGGGCTCGTCTCAG; listed as DNA, chemistry not fully specified) | 0.9607 | −0.8707 | −0.4869 | 1.033 | – | – | –
15 | BCR_ + _23523092.23-P1P2_13 (guide GCGCGCGGGGCCCATCTCAG; listed as DNA, chemistry not fully specified) | 0.3187 | −0.2183 | −0.1615 | 0.2591 | – | – | –
16 | BCR_ + _23523092.23-P1P2_15 (guide GCGCGCGGGGCCCGTCGCAG; listed as DNA, chemistry not fully specified) | 0.3498 | −0.2314 | −0.1773 | 0.2747 | – | – | –

Row | Substance | relative_activity_day10 (K562 CRISPRi cells [1]) | gamma_day5 (K562 CRISPRi cells [2]) | gamma_day10 (K562 CRISPRi cells [2]) | relative_activity_day5 (K562 CRISPRi cells [2]) | Perturb-seq pooled growth sgRNA counts, d5 (K562 CRISPRi cells [2]) | Perturb-seq pooled growth sgRNA counts, d10 (K562 CRISPRi cells [2]) | Perturb-seq pooled growth sgRNA counts, T0 (K562 CRISPRi cells [2])
17 | CAD_ + _27440280.23-P1P2_00 (guide GGCTGGAGAGAAGCCGGGCG; listed as DNA, chemistry not fully specified) | 1 | −0.7714 | −0.684 | 1 | – | – | –
18 | CAD_ + _27440280.23-P1P2_03 (guide GGCTGGTGAGAAGCCGGGCG; listed as DNA, chemistry not fully specified) | 0.9162 | −0.7687 | −0.6267 | 0.9965 | – | – | –
19 | CAD_ + _27440280.23-P1P2_06 (guide GGCTGGAGAGTAGCCGGGCG; listed as DNA, chemistry not fully specified) | 0.4592 | −0.3975 | −0.3141 | 0.5153 | – | – | –
20 | CAD_ + _27440280.23-P1P2_07 (guide GGCTGGAGCGAAGCCGGGCG; listed as DNA, chemistry not fully specified) | 0.6811 | −0.6026 | −0.4659 | 0.7812 | – | – | –
21 | CAD_ + _27440280.23-P1P2_13 (guide GGCTGGAGAGAAGCCTGGCG; listed as DNA, chemistry not fully specified) | 0.241 | −0.1861 | −0.1648 | 0.2413 | – | – | –
22 | CDC23_ −_137548987.23-P1P2_00 (guide GACAGCCACCGGGACCATGG; listed as DNA, chemistry not fully specified) | 1 | −1.176 | −0.6584 | 1 | – | – | –
23 | CDC23_ −_137548987.23-P1P2_02 (guide GACAGCTACCGGGACCATGG; listed as DNA, chemistry not fully specified) | 0.8665 | −1.087 | −0.5705 | 0.9238 | – | – | –
24 | CDC23_ −_137548987.23-P1P2_04 (guide GACAGCCAACGGGACCATGG; listed as DNA, chemistry not fully specified) | 0.8148 | −0.8887 | −0.5364 | 0.7556 | – | – | –
25 | CDC23_ −_137548987.23-P1P2_08 (guide GACAGCCATCGGGACCATGG; listed as DNA, chemistry not fully specified) | 0.8355 | −0.9559 | −0.5501 | 0.8128 | – | – | –
26 | CDC23_ −_137548987.23-P1P2_11 (guide GACAGCCACCGGGACCACGG; listed as DNA, chemistry not fully specified) | 0.3065 | −0.2745 | −0.2018 | 0.2334 | – | – | –
27 | COX11_ + _53045977.23-P1P2_00 (guide GGCTCTGGCGTCCTGGATGG; listed as DNA, chemistry not fully specified) | 1 | −0.1817 | −0.2988 | 1 | – | – | –
28 | COX11_ + _53045977.23-P1P2_03 (guide GGCTCTGTCGTCCTGGATGG; listed as DNA, chemistry not fully specified) | 0.9622 | −0.1719 | −0.2875 | 0.9463 | – | – | –
29 | COX11_ + _53045977.23-P1P2_04 (guide GGCTCTGGCGCCCTGGATGG; listed as DNA, chemistry not fully specified) | 0.8616 | −0.1495 | −0.2574 | 0.8227 | – | – | –
30 | non-targeting_00527: non-targeting negative control sgRNA, GTGGGAGCAGATCAAGACTC, SEQ ID NO: 168 (listed as DNA, chemistry not fully specified) [reference compound] | – | – | – | – | 16865 | 27634 | 6840
31 | non-targeting_00802: non-targeting negative control sgRNA, GCACGACGCTCCGGCACGCG, SEQ ID NO: 169 (listed as DNA, chemistry not fully specified) [reference compound] | – | – | – | – | 16759 | 27842 | 7096
32 | non-targeting_01040: non-targeting negative control sgRNA, GTACGGCATGGCGCACTGCG, SEQ ID NO: 170 (listed as DNA, chemistry not fully specified) [reference compound] | – | – | – | – | 0 | 0 | 0
